The target of data set [1] is T1, HvExoI W286F/W434F mutant (Hordeum vulgare, UniProt Q9XEI3, W311F/W459F).
T1 sequence (Q9XEI3 26-630 W311F/W459F): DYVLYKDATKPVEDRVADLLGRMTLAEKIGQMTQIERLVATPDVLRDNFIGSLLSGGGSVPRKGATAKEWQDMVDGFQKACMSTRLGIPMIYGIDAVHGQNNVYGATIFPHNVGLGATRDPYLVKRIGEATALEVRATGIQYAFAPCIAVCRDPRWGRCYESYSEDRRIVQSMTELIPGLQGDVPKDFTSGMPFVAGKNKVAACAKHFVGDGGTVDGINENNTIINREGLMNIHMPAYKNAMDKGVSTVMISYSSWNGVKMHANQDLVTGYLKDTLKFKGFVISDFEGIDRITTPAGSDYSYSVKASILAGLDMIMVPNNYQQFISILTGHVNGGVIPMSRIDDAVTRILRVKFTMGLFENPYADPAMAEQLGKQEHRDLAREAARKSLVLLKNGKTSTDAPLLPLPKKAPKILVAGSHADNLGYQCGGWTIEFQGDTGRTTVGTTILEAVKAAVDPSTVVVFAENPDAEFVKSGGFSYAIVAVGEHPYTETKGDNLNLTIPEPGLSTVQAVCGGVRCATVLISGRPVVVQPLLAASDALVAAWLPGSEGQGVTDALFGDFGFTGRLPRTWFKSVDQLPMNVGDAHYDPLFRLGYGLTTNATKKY
Nature of the data set: Relative rates of hydrolysis of poly-, oligosaccharides and aryl-glycosides. It is filed as biochemical. The conditions noted are these: substance is the substrate, nd = activity not detected. How it is done:
(§1) Dependency of activities of WT and mutant HvExoI on pH (McIlvaine buffers in the pH range of 3.5–8.5 at 30 °C) and temperature (100 mM sodium acetate buffer, pH 5.25, temperature range 0–80 °C, 15 min incubations) were determined using 0.2% (w/v) 4NP-Glc[21],[59]. Relative rates of hydrolysis of β-linked poly-, oligosaccharides, and aryl-glucosides were determined using near-homogenous HvExoI at 50 pmoles. […] Kinetic parameters were calculated from the analyses of Michaelis-Menten plots with Grafit 7.0.3[62] and processed by a proportional weighted fit, using nonlinear regression. The relative rates of hydrolysis, kinetic, and inhibition data were rounded to one or two decimal points (Supplementary Tables 2–4).

For data set [2], the target named is T2, WT HvExoI (Hordeum vulgare, UniProt Q9XEI3). Described as above. In kind it is biochemical. The conditions noted are these: substance is the substrate, HvExoI at 50 pmoles, nd = activity not detected. The method, then: as §1
T2 sequence (Q9XEI3 entry or part of it): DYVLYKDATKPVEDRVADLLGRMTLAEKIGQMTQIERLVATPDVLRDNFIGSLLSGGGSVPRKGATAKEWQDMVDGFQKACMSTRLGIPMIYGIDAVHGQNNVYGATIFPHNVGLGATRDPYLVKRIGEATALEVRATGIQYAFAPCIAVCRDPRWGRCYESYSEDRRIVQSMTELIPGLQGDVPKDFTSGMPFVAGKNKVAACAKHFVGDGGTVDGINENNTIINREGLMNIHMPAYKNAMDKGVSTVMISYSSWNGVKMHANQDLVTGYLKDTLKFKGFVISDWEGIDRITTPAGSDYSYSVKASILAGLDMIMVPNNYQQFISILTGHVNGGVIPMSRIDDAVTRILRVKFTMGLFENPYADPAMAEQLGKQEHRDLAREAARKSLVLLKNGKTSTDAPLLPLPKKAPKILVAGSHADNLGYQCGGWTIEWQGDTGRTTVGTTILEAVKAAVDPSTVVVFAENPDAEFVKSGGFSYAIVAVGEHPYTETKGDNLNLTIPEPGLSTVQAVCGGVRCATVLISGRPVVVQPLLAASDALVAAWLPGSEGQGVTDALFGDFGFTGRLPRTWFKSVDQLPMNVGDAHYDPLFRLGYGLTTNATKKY
The next data set deals with T3, HvExoI W434H mutant (Hordeum vulgare, UniProt Q9XEI3, W459H).
T3 sequence (Q9XEI3 26-630 W459H): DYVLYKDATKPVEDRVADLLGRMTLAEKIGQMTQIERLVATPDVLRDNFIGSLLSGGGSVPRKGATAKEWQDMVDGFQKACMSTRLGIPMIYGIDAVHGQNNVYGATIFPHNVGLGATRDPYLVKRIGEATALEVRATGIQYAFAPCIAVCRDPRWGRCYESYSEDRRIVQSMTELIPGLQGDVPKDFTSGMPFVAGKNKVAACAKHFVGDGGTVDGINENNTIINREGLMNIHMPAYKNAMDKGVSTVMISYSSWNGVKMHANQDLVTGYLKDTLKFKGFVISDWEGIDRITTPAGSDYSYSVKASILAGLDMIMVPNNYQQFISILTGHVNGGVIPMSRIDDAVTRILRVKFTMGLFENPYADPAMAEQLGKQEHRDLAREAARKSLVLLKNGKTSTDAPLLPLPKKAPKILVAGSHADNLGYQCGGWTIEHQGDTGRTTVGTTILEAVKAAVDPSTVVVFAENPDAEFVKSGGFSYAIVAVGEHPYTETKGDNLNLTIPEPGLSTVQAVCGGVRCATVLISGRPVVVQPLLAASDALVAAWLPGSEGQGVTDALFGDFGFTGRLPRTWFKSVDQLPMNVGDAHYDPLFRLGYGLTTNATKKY
Described as above. It is filed as biochemical. Conditions: substance is the substrate. The method, then: as §1

Data set [3] addresses T2, WT HvExoI. Nature of the data set: Inhibition by thio-analogues using the 4NP-Glc substrate. It is filed as biochemical. The conditions noted are these: for ΔG: calculated according to ∆G = -RT ln [1/Ki]; for type of inhibition: WT HvExoI. How it is done:
as §1

The next data set deals with Native HvExoI (Hordeum vulgare, UniProt Q9XEI3). Described as above. It is filed as biochemical. The conditions noted are these: for ΔG: calculated according to ∆G = -RT ln [1/Ki]; for Ki: apparent inhibition constant, 4NP-Glc substrate. How it is done: as §1
Sequence of Native HvExoI (Q9XEI3 entry or part of it): as the sequence (Q9XEI3 entry or part of it) above
The test system of another data set is Recombinant HvExoI W434H. Described as above. In kind it is biochemical, Hordeum vulgare. Conditions: for ΔG: calculated according to ∆G = -RT ln [1/Ki]. The method, then: as §1
The subject of another data set is Recombinant HvExoI W434A. The data set is described as above. It is filed as biochemical, Hordeum vulgare. The conditions noted are these: calculated according to ∆G = -RT ln [1/Ki]. How it is done: as §1
The test system of another data set is Recombinant HvExoI W434Y. The description is as above. It is filed as biochemical, Hordeum vulgare. The conditions noted are these: calculated according to ∆G = -RT ln [1/Ki]. The method, then: as §1
The next data set relates to Recombinant HvExoI W286F. The description is as above. Conditions: calculated according to ∆G = -RT ln [1/Ki]. In kind it is biochemical, Hordeum vulgare. The method, then:
as §1

For a further data set, the system named is Recombinant HvExoI W434F. The description is as above. In kind it is biochemical, Hordeum vulgare. Conditions: for ΔG: calculated according to ∆G = -RT ln [1/Ki]. The method, then:
as §1

The next data set deals with Recombinant HvExoI W286Y. It is filed as biochemical, Hordeum vulgare. The conditions noted are these: calculated according to ∆G = -RT ln [1/Ki]. How it is done: as §1
For another data set, the target named is HvExoI. Details: method as in PMID 8617814. Conditions: transition state analogue; previous observations; cited from earlier work.
Substrate in data set [4]: OC[C@H]1O[C@@H](O[C@H]2[C@H](O)[C@@H](CO)OC(O)[C@@H]2O)[C@H](O)[C@@H](O)[C@@H]1O
Briefly: Steady-state apparent kinetic constants with substrates. Conditions: substance is the substrate, pH 5.25, 30.0 °C. In kind it is biochemical, Hordeum vulgare.

Substrate in data set [5]: O=[N+]([O-])c1ccc(O[C@@H]2O[C@H](CO)[C@@H](O)[C@H](O)[C@H]2O)cc1
Described as above. It is filed as biochemical, Hordeum vulgare. The conditions noted are these: substance is the substrate, pH 5.25, 30.0 °C.

In the case of lichenin, the figures for the “Activity (relative rate of hydrolysis)” value (in [1]; on WT HvExoI [2]; at HvExoI W434H mutant) were 0.03 ± 0.001 μmole/min per mg protein, 0.8 ± 0.1 μmole/min per mg protein and 0.03 ± 0.01 μmole/min per mg protein, respectively.
In the case of `CO[C@@H]1O[C@H](CO)[C@@H](O)[C@H](O)[C@H]1S[C@@H]1O[C@H](CO)[C@@H](O)[C@H](O)[C@H]1O` [G2SG-OMe, methyl 2-thio-β-sophoroside], the ΔG on WT HvExoI [3] (Recombinant WT) is -3.32 kcal/mol; at Native HvExoI, -3.75 kcal/mol.
`CO[C@@H]1O[C@H](CO)[C@@H](S[C@@H]2O[C@H](CO)[C@@H](O)[C@H](O)[C@H]2O)[C@H](O)[C@H]1O` [G4SG-OMe, methyl 4-thio-β-cellobioside]: the Ki at WT HvExoI [3] (Recombinant WT, apparent inhibition constant, 4NP-Glc substrate) was determined as 1000 µM; at Native HvExoI, 1000 µM. The ΔG is -4.16 kcal/mol on WT HvExoI [3] (Recombinant WT); -4.16 kcal/mol at Native HvExoI; -3.85 kcal/mol in the data set with Recombinant HvExoI W434H; -3.68 kcal/mol with Recombinant HvExoI W434A; -3.3 kcal/mol with Recombinant HvExoI W434Y; -3.75 kcal/mol in the data set on Recombinant HvExoI W286F. In addition, the values for the ΔG in the data set with Recombinant HvExoI W434F and with Recombinant HvExoI W286Y were -3.42 kcal/mol and -3.68 kcal/mol, respectively. Also, the type of inhibition result at WT HvExoI [3] is given as “competitive inhibition”.
On to `CO[C@@H]1O[C@H](CS[C@@H]2O[C@H](CO)[C@@H](O)[C@H](O)[C@H]2O)[C@@H](O)[C@H](O)[C@H]1O` [G6SG-OMe, methyl 6-thio-β-gentiobioside], for which the ΔG was -5.09 kcal/mol at WT HvExoI [3] (Recombinant WT); -5.54 kcal/mol on Native HvExoI; -4.3 kcal/mol with Recombinant HvExoI W434H; -4.88 kcal/mol with Recombinant HvExoI W434Y; -5.14 kcal/mol in the data set on Recombinant HvExoI W286F; -4.47 kcal/mol with Recombinant HvExoI W434F. Also, the ΔG in the data set with Recombinant HvExoI W286Y was -4.88 kcal/mol. At WT HvExoI [3], the type of inhibition entry is listed as “competitive inhibition”. The Ki on Native HvExoI was found to be 100 µM. Also, the results for the “fold higher Ki constant value compared to WT” value in the data set on Recombinant HvExoI W434H and in the data set on Recombinant HvExoI W434F were 8 fold and 6 fold, respectively.
As to `O=C1O[C@H](CO)[C@@H](O)[C@H](O)[C@H]1O` [D-glucono−1,5-lactone], the Ki at HvExoI is 2.1 µM.
As to “4-nitrophenyl 3-thio-laminaribioside [4NP-G3SG]”, the ΔG at WT HvExoI [3] (Recombinant WT) was -4.37 kcal/mol; on Native HvExoI, -4.37 kcal/mol; in the data set on Recombinant HvExoI W434H it was -3.61 kcal/mol; in the data set on Recombinant HvExoI W434A, -3.92 kcal/mol; with Recombinant HvExoI W434Y, -3.75 kcal/mol; in the data set with Recombinant HvExoI W286F, -4.37 kcal/mol. For the same molecule, the ΔG in the data set on Recombinant HvExoI W434F is -4.11 kcal/mol; in the data set on Recombinant HvExoI W286Y, -3.75 kcal/mol. In addition, the type of inhibition entry on WT HvExoI [3] was “competitive inhibition”.
As to `O=[N+]([O-])c1ccc(O[C@@H]2O[C@H](CO)[C@@H](O[C@@H]3O[C@H](CO)[C@@H](O)[C@H](O)[C@H]3O)[C@H](O)[C@H]2O)cc1` [4NP-cellobioside], the “Activity (relative rate of hydrolysis)” value on WT HvExoI [2] came out at 0.9 ± 0.01 μmole/min per mg protein; at HvExoI W434H mutant, 0.04 ± 0.001 μmole/min per mg protein.

B1: HvExoI W286F/W434F mutant (Hordeum vulgare subsp. vulgare; W311F/W459F) (protein)
chain: DYVLYKDATKPVEDRVADLLGRMTLAEKIGQMTQIERLVATPDVLRDNFIGSLLSGGGSVPRKGATAKEWQDMVDGFQKACMSTRLGIPMIYGIDAVHGQNNVYGATIFPHNVGLGATRDPYLVKRIGEATALEVRATGIQYAFAPCIAVCRDPRWGRCYESYSEDRRIVQSMTELIPGLQGDVPKDFTSGMPFVAGKNKVAACAKHFVGDGGTVDGINENNTIINREGLMNIHMPAYKNAMDKGVSTVMISYSSWNGVKMHANQDLVTGYLKDTLKFKGFVISDFEGIDRITTPAGSDYSYSVKASILAGLDMIMVPNNYQQFISILTGHVNGGVIPMSRIDDAVTRILRVKFTMGLFENPYADPAMAEQLGKQEHRDLAREAARKSLVLLKNGKTSTDAPLLPLPKKAPKILVAGSHADNLGYQCGGWTIEFQGDTGRTTVGTTILEAVKAAVDPSTVVVFAENPDAEFVKSGGFSYAIVAVGEHPYTETKGDNLNLTIPEPGLSTVQAVCGGVRCATVLISGRPVVVQPLLAASDALVAAWLPGSEGQGVTDALFGDFGFTGRLPRTWFKSVDQLPMNVGDAHYDPLFRLGYGLTTNATKKY
For B1, in data set [4] (other: W286F/W434F), the Km (as a rule, the substrate concentration at which the rate is half of its maximum) was 200 ± 20 µM; the kcat (usually the maximal rate divided by the concentration of active sites) was found to be 0.5 ± 0.04 s⁻¹; the kcat/Km (usually the second-order rate constant that governs catalysis at low substrate concentration) is 3000 ± 600 M⁻¹ s⁻¹. Also, in data set [5] (other: W286F/W434F), the Km came out at 600 ± 100 µM, the kcat stood at 0.7 ± 0.02 s⁻¹ and the kcat/Km came out at 1200 ± 200 M⁻¹ s⁻¹.

B2: HvExoI W286F/W434A mutant (Hordeum vulgare subsp. vulgare; W311F/W459A) (protein)
chain: DYVLYKDATKPVEDRVADLLGRMTLAEKIGQMTQIERLVATPDVLRDNFIGSLLSGGGSVPRKGATAKEWQDMVDGFQKACMSTRLGIPMIYGIDAVHGQNNVYGATIFPHNVGLGATRDPYLVKRIGEATALEVRATGIQYAFAPCIAVCRDPRWGRCYESYSEDRRIVQSMTELIPGLQGDVPKDFTSGMPFVAGKNKVAACAKHFVGDGGTVDGINENNTIINREGLMNIHMPAYKNAMDKGVSTVMISYSSWNGVKMHANQDLVTGYLKDTLKFKGFVISDFEGIDRITTPAGSDYSYSVKASILAGLDMIMVPNNYQQFISILTGHVNGGVIPMSRIDDAVTRILRVKFTMGLFENPYADPAMAEQLGKQEHRDLAREAARKSLVLLKNGKTSTDAPLLPLPKKAPKILVAGSHADNLGYQCGGWTIEAQGDTGRTTVGTTILEAVKAAVDPSTVVVFAENPDAEFVKSGGFSYAIVAVGEHPYTETKGDNLNLTIPEPGLSTVQAVCGGVRCATVLISGRPVVVQPLLAASDALVAAWLPGSEGQGVTDALFGDFGFTGRLPRTWFKSVDQLPMNVGDAHYDPLFRLGYGLTTNATKKY
With B2, in [4] (other: W286F/W434A), the Km was found to be 700 ± 200 µM, the kcat is 0.2 ± 0.02 s⁻¹ and the catalytic efficiency (kcat/Km) was 200 ± 30 M⁻¹ s⁻¹. Moreover, in data set [5] (other: W286F/W434A), the Km is 700 ± 40 µM, the kcat was found to be 1.9 ± 0.1 s⁻¹ and the kcat/Km is 2500 ± 200 M⁻¹ s⁻¹.

Source of the values: article PMC9508125, “The evolutionary advantage of an aromatic clamp in plant family 3 glycoside exo-hydrolases” (Nature Communications, 2022).
